According to ChEMBL document CHEMBL4004838, “Design and synthesis of novel phenyl -1, 4-beta-carboline-hybrid molecules as potential anticancer agents” (Eur J Med Chem, 2017):

These compounds were tested on TK-10 (assay: Growth inhibition of human TK10 cells assessed as cell growth at 10^-5 M incubated for 48 hrs by sulforhodamine B assay relative to control). Conditions: TK-10, 48 h, read-out: Activity.
Format: functional

Compound | growth at 10 µM [%]
Cc1ccc(S(=O)(=O)N2CCc3c([nH]c4ccccc34)C2c2ccc(C=O)cc2)cc1 (stereo not drawn) | 98

What follows are compounds tested on K562 (assay: Growth inhibition of human K562 cells assessed as cell growth at 10^-5 M incubated for 48 hrs by sulforhodamine B assay relative to control). Conditions: K562, 48 h, read-out: Activity.
Format: functional

Compound | growth at 10 µM [%]
Cc1ccc(S(=O)(=O)N2CCc3c([nH]c4ccccc34)C2c2ccc(C=O)cc2)cc1 (stereo not drawn) | 106

What follows are compounds tested on U-251 (assay: Growth inhibition of human U251 cells assessed as cell growth at 10^-5 M incubated for 48 hrs by sulforhodamine B assay relative to control). Conditions: U-251, 48 h, read-out: Activity.
Format: functional

Compound | growth at 10 µM [%]
Cc1ccc(S(=O)(=O)N2CCc3c([nH]c4ccccc34)C2c2ccc(C=O)cc2)cc1 (stereo not drawn) | 98

The compounds below were run on COLO 205 (assay: Growth inhibition of human COLO205 cells assessed as cell growth at 10^-5 M incubated for 48 hrs by sulforhodamine B assay relative to control). Conditions: COLO 205, 48 h, read-out: Activity.
Format: functional

Compound | growth at 10 µM [%]
Cc1ccc(S(=O)(=O)N2CCc3c([nH]c4ccccc34)C2c2ccc(C=O)cc2)cc1 (stereo not drawn) | 92.1

The compounds below were run on BT-549 (assay: Growth inhibition of human BT549 cells assessed as cell growth at 10^-5 M incubated for 48 hrs by sulforhodamine B assay relative to control). Conditions: BT-549, 48 h, read-out: Activity.
Format: functional

Compound | growth at 10 µM [%]
Cc1ccc(S(=O)(=O)N2CCc3c([nH]c4ccccc34)C2c2ccc(C=O)cc2)cc1 (stereo not drawn) | 77.1

Each compound was assayed on OVCAR-4 (assay: Growth inhibition of human OVCAR4 cells assessed as cell growth at 10^-5 M incubated for 48 hrs by sulforhodamine B assay relative to control). Conditions: OVCAR-4, 48 h, read-out: Activity.
Format: functional

Compound | growth at 10 µM [%]
Cc1ccc(S(=O)(=O)N2CCc3c([nH]c4ccccc34)C2c2ccc(C=O)cc2)cc1 (stereo not drawn) | 85.8

These compounds were tested on MDA-MB-468 (assay: Growth inhibition of human MDA-MB-468 cells assessed as cell growth at 10^-5 M incubated for 48 hrs by sulforhodamine B assay relative to control). Conditions: MDA-MB-468, 48 h, read-out: Activity.
Format: functional

Compound | growth at 10 µM [%]
Cc1ccc(S(=O)(=O)N2CCc3c([nH]c4ccccc34)C2c2ccc(C=O)cc2)cc1 (stereo not drawn) | 102

Each compound was assayed on UO-31 (assay: Growth inhibition of human UO31 cells assessed as cell growth at 10^-5 M incubated for 48 hrs by sulforhodamine B assay relative to control). Conditions: UO-31, 48 h, read-out: Activity.
Format: functional

Compound | growth at 10 µM [%]
Cc1ccc(S(=O)(=O)N2CCc3c([nH]c4ccccc34)C2c2ccc(C=O)cc2)cc1 (stereo not drawn) | 66.7

What follows are compounds tested on SR (assay: Growth inhibition of human SR cells assessed as cell growth at 10^-5 M incubated for 48 hrs by sulforhodamine B assay relative to control). Conditions: read-out: Activity.
Format: functional

Compound | growth at 10 µM [%]
Cc1ccc(S(=O)(=O)N2CCc3c([nH]c4ccccc34)C2c2ccc(C=O)cc2)cc1 (stereo not drawn) | 97.2

What follows are compounds tested on Malme-3M (assay: Growth inhibition of human MALME-3M cells assessed as cell growth at 10^-5 M incubated for 48 hrs by sulforhodamine B assay relative to control). Conditions: read-out: Activity.
Format: functional

Compound | growth at 10 µM [%]
Cc1ccc(S(=O)(=O)N2CCc3c([nH]c4ccccc34)C2c2ccc(C=O)cc2)cc1 (stereo not drawn) | 89.7

Each compound was assayed on UACC-62 (assay: Growth inhibition of human UACC62 cells assessed as cell growth at 10^-5 M incubated for 48 hrs by sulforhodamine B assay relative to control). Conditions: UACC-62, 48 h, read-out: Activity.
Format: functional

Compound | growth at 10 µM [%]
Cc1ccc(S(=O)(=O)N2CCc3c([nH]c4ccccc34)C2c2ccc(C=O)cc2)cc1 (stereo not drawn) | 65

What follows are compounds tested on HCC 2998 (assay: Growth inhibition of human HCC2998 cells assessed as cell growth at 10^-5 M incubated for 48 hrs by sulforhodamine B assay relative to control). Conditions: HCC 2998, 48 h, read-out: Activity.
Format: functional

Compound | growth at 10 µM [%]
Cc1ccc(S(=O)(=O)N2CCc3c([nH]c4ccccc34)C2c2ccc(C=O)cc2)cc1 (stereo not drawn) | 102

Each compound was assayed on SNB-75 (assay: Growth inhibition of human SNB75 cells assessed as cell growth at 10^-5 M incubated for 48 hrs by sulforhodamine B assay relative to control). Conditions: SNB-75, 48 h, read-out: Activity.
Format: functional

Compound | growth at 10 µM [%]
Cc1ccc(S(=O)(=O)N2CCc3c([nH]c4ccccc34)C2c2ccc(C=O)cc2)cc1 (stereo not drawn) | 74

These compounds were tested on SK-MEL-2 (assay: Growth inhibition of human SK-MEL-2 cells assessed as cell growth at 10^-5 M incubated for 48 hrs by sulforhodamine B assay relative to control). Conditions: SK-MEL-2, 48 h, read-out: Activity.
Format: functional

Compound | growth at 10 µM [%]
Cc1ccc(S(=O)(=O)N2CCc3c([nH]c4ccccc34)C2c2ccc(C=O)cc2)cc1 (stereo not drawn) | 81.6

Each compound was assayed on HCT-15 (assay: Growth inhibition of human HCT15 cells assessed as cell growth at 10^-5 M incubated for 48 hrs by sulforhodamine B assay relative to control). Conditions: HCT-15, 48 h, read-out: Activity.
Format: functional

Compound | growth at 10 µM [%]
Cc1ccc(S(=O)(=O)N2CCc3c([nH]c4ccccc34)C2c2ccc(C=O)cc2)cc1 (stereo not drawn) | 94.3

The compounds below were run on HOP-92 (assay: Growth inhibition of human HOP92 cells assessed as cell growth at 10^-5 M incubated for 48 hrs by sulforhodamine B assay relative to control). Conditions: HOP-92, 48 h, read-out: Activity.
Format: functional

Compound | growth at 10 µM [%]
Cc1ccc(S(=O)(=O)N2CCc3c([nH]c4ccccc34)C2c2ccc(C=O)cc2)cc1 (stereo not drawn) | 102

The compounds below were run on 786-0 (assay: Growth inhibition of human 786-0 cells assessed as cell growth at 10^-5 M incubated for 48 hrs by sulforhodamine B assay relative to control). Conditions: 786-0, 48 h, read-out: Activity.
Format: functional

Compound | growth at 10 µM [%]
Cc1ccc(S(=O)(=O)N2CCc3c([nH]c4ccccc34)C2c2ccc(C=O)cc2)cc1 (stereo not drawn) | 99.6

The compounds below were run on T47D (assay: Growth inhibition of human T47D cells assessed as cell growth at 10^-5 M incubated for 48 hrs by sulforhodamine B assay relative to control). Conditions: read-out: Activity.
Format: functional

Compound | growth at 10 µM [%]
Cc1ccc(S(=O)(=O)N2CCc3c([nH]c4ccccc34)C2c2ccc(C=O)cc2)cc1 (stereo not drawn) | 89.1

What follows are compounds tested on ACHN (assay: Growth inhibition of human ACHN cells assessed as cell growth at 10^-5 M incubated for 48 hrs by sulforhodamine B assay relative to control). Conditions: read-out: Activity.
Format: functional

Compound | growth at 10 µM [%]
Cc1ccc(S(=O)(=O)N2CCc3c([nH]c4ccccc34)C2c2ccc(C=O)cc2)cc1 (stereo not drawn) | 79.1

What follows are compounds tested on DU-145 (assay: Growth inhibition of human DU145 cells assessed as cell growth at 10^-5 M incubated for 48 hrs by sulforhodamine B assay relative to control). Conditions: DU-145, 48 h, read-out: Activity.
Format: functional

Compound | growth at 10 µM [%]
Cc1ccc(S(=O)(=O)N2CCc3c([nH]c4ccccc34)C2c2ccc(C=O)cc2)cc1 (stereo not drawn) | 101

The compounds below were run on NCI/ADR-RES (assay: Growth inhibition of human NCI-ADR-RES cells assessed as cell growth at 10^-5 M incubated for 48 hrs by sulforhodamine B assay relative to control). Conditions: read-out: Activity.
Format: functional

Compound | growth at 10 µM [%]
Cc1ccc(S(=O)(=O)N2CCc3c([nH]c4ccccc34)C2c2ccc(C=O)cc2)cc1 (stereo not drawn) | 88.9

What follows are compounds tested on MOLT-4 (assay: Growth inhibition of human MOLT4 cells assessed as cell growth at 10^-5 M incubated for 48 hrs by sulforhodamine B assay relative to control). Conditions: MOLT-4, 48 h, read-out: Activity.
Format: functional

Compound | growth at 10 µM [%]
Cc1ccc(S(=O)(=O)N2CCc3c([nH]c4ccccc34)C2c2ccc(C=O)cc2)cc1 (stereo not drawn) | 95.9

Each compound was assayed on CCRF-CEM (assay: Growth inhibition of human CCRF-CEM cells assessed as cell growth at 10^-5 M incubated for 48 hrs by sulforhodamine B assay relative to control). Conditions: read-out: Activity.
Format: functional

Compound | growth at 10 µM [%]
Cc1ccc(S(=O)(=O)N2CCc3c([nH]c4ccccc34)C2c2ccc(C=O)cc2)cc1 (stereo not drawn) | 106

These compounds were tested on MDA-MB-435 (assay: Growth inhibition of human MDA-MB-435 cells assessed as cell growth at 10^-5 M incubated for 48 hrs by sulforhodamine B assay relative to control). Conditions: MDA-MB-435, 48 h, read-out: Activity.
Format: functional

Compound | growth at 10 µM [%]
Cc1ccc(S(=O)(=O)N2CCc3c([nH]c4ccccc34)C2c2ccc(C=O)cc2)cc1 (stereo not drawn) | 93.4

These compounds were tested on HT-29 (assay: Growth inhibition of human HT-29 cells assessed as cell growth at 10^-5 M incubated for 48 hrs by sulforhodamine B assay relative to control). Conditions: HT-29, 48 h, read-out: Activity.
Format: functional

Compound | growth at 10 µM [%]
Cc1ccc(S(=O)(=O)N2CCc3c([nH]c4ccccc34)C2c2ccc(C=O)cc2)cc1 (stereo not drawn) | 87.2

Each compound was assayed on OVCAR-5 (assay: Growth inhibition of human OVCAR5 cells assessed as cell growth at 10^-5 M incubated for 48 hrs by sulforhodamine B assay relative to control). Conditions: OVCAR-5, 48 h, read-out: Activity.
Format: functional

Compound | growth at 10 µM [%]
Cc1ccc(S(=O)(=O)N2CCc3c([nH]c4ccccc34)C2c2ccc(C=O)cc2)cc1 (stereo not drawn) | 78.7

These compounds were tested on NCI-H322M (assay: Growth inhibition of human NCI-H322M cells assessed as cell growth at 10^-5 M incubated for 48 hrs by sulforhodamine B assay relative to control). Conditions: read-out: Activity.
Format: functional

Compound | growth at 10 µM [%]
Cc1ccc(S(=O)(=O)N2CCc3c([nH]c4ccccc34)C2c2ccc(C=O)cc2)cc1 (stereo not drawn) | 87.7

These compounds were tested on LOX IMVI (assay: Growth inhibition of human LOXIMVI cells assessed as cell growth at 10^-5 M incubated for 48 hrs by sulforhodamine B assay relative to control). Conditions: read-out: Activity.
Format: functional

Compound | growth at 10 µM [%]
Cc1ccc(S(=O)(=O)N2CCc3c([nH]c4ccccc34)C2c2ccc(C=O)cc2)cc1 (stereo not drawn) | 85.5

What follows are compounds tested on OVCAR-3 (assay: Growth inhibition of human OVCAR3 cells assessed as cell growth at 10^-5 M incubated for 48 hrs by sulforhodamine B assay relative to control). Conditions: OVCAR-3, 48 h, read-out: Activity.
Format: functional

Compound | growth at 10 µM [%]
Cc1ccc(S(=O)(=O)N2CCc3c([nH]c4ccccc34)C2c2ccc(C=O)cc2)cc1 (stereo not drawn) | 93.5

The compounds below were run on HL-60(TB) (assay: Growth inhibition of human HL-60(TB) cells assessed as cell growth at 10^-5 M incubated for 48 hrs by sulforhodamine B assay relative to control). Conditions: HL-60, 48 h, read-out: Activity.
Format: functional

Compound | growth at 10 µM [%]
Cc1ccc(S(=O)(=O)N2CCc3c([nH]c4ccccc34)C2c2ccc(C=O)cc2)cc1 (stereo not drawn) | 105

Each compound was assayed on NCI-H226 (assay: Growth inhibition of human NCI-H226 cells assessed as cell growth at 10^-5 M incubated for 48 hrs by sulforhodamine B assay relative to control). Conditions: NCI-H226, 48 h, read-out: Activity.
Format: functional

Compound | growth at 10 µM [%]
Cc1ccc(S(=O)(=O)N2CCc3c([nH]c4ccccc34)C2c2ccc(C=O)cc2)cc1 (stereo not drawn) | 86.4

Each compound was assayed on NCI-H23 (assay: Growth inhibition of human NCI-H23 cells assessed as cell growth at 10^-5 M incubated for 48 hrs by sulforhodamine B assay relative to control). Conditions: NCI-H23, 48 h, read-out: Activity.
Format: functional

Compound | growth at 10 µM [%]
Cc1ccc(S(=O)(=O)N2CCc3c([nH]c4ccccc34)C2c2ccc(C=O)cc2)cc1 (stereo not drawn) | 85.7

The compounds below were run on Hs-578T (assay: Growth inhibition of human Hs 578T cells assessed as cell growth at 10^-5 M incubated for 48 hrs by sulforhodamine B assay relative to control). Conditions: read-out: Activity.
Format: functional

Compound | growth at 10 µM [%]
Cc1ccc(S(=O)(=O)N2CCc3c([nH]c4ccccc34)C2c2ccc(C=O)cc2)cc1 (stereo not drawn) | 89.2
